Source: patent US7414072B2, “Aryl 5-thio-β-d-glucopyranoside derivatives and therapeutic agents for diabetes containing the same” (Taisho Pharmaceutical Co., Ltd., priority 2002, dated 2008)

SMILES | melting point [°C]
CCCCOc1ccc(Cc2cc(Cl)ccc2O[C@@H]2S[C@H](CO)[C@@H](O)[C@H](O)[C@H]2O)cc1 [Compound 45, 2′-(4′-butoxybenzyl)-4′-chlorophenyl 5-thio-β-D-glucopyranoside] | 166 to 169
CCc1ccccc1Cc1ccccc1O[C@@H]1S[C@H](CO)[C@@H](O)[C@H](O)[C@H]1O [Compound 58] | 96 to 101
OC[C@H]1S[C@@H](Oc2ccccc2Cc2ccccc2)[C@H](O)[C@@H](O)[C@@H]1O [Compound 11, 2′-benzylphenyl 5-thio-β-D-glucopyranoside] | 171 to 174
CCOc1ccc(Cc2ccccc2O[C@@H]2S[C@H](CO)[C@@H](O)[C@H](O)[C@H]2O)cc1 [Compound 5, 2′-(4′-ethoxybenzyl)phenyl 5-thio-β-D-glucopyranoside] | 182 to 183.5
O=C(Nc1ccccc1)c1cc2ccccc2cc1O[C@@H]1S[C@H](CO)[C@@H](O)[C@H](O)[C@H]1O [Compound 92] | 200 to 202
OC[C@H]1S[C@@H](Oc2ccc(Cl)cc2Cc2c(F)c(F)cc(F)c2F)[C@H](O)[C@@H](O)[C@@H]1O [Compound 66, 4′-chloro-2′-(2′,3′,5′,6′-tetrafluorobenzyl)phenyl 5-thio-β-D-glucopyranoside] | 204 to 211
OC[C@H]1S[C@@H](Oc2ccccc2Cc2ccncc2)[C@H](O)[C@@H](O)[C@@H]1O [Compound 24] | 179 to 180
OC[C@H]1S[C@@H](Oc2ccc(Cl)cc2Cc2cc(F)cc(C(F)(F)F)c2)[C@H](O)[C@@H](O)[C@@H]1O [Compound 76, 4′-chloro-2′-(3′-fluoro-5′-trifluoromethylbenzyl)phenyl 5-thio-β-D-glucopyranoside] | 126 to 129
OC[C@H]1S[C@@H](Oc2ccccc2Cc2ccc(N3CCCCC3)cc2)[C@H](O)[C@@H](O)[C@@H]1O [Compound 74, 2′-(4′-piperidinobenzyl)phenyl 5-thio-β-D-glucopyranoside] | 156.5 to 160
OCc1ccc(Cc2ccccc2O[C@@H]2S[C@H](CO)[C@@H](O)[C@H](O)[C@H]2O)cc1 [Compound 56, 2′-(4′-hydroxymethylbenzyl)phenyl 5-thio-β-D-glucopyranoside] | 184 to 186.5
COc1ccc(CNC(=O)c2c(O)cccc2O[C@@H]2S[C@H](CO)[C@@H](O)[C@H](O)[C@H]2O)cc1 [Compound 84, 3′-hydroxy-2′-(4′-methoxybenzylaminocarbonyl)phenyl 5-thio-β-D-glucopyranoside] | 183 to 185
CCc1ccc(Cc2ccccc2O[C@@H]2S[C@H](COC(=O)OC)[C@@H](O)[C@H](O)[C@H]2O)cc1 [Compound 23, 2′-(4′-ethylbenzyl)phenyl 6-O-methoxycarbonyl 5-thio-β-D-glucopyranoside] | 102 to 104.5
Cc1ccc(Sc2ccccc2O[C@@H]2S[C@H](CO)[C@@H](O)[C@H](O)[C@H]2O)cc1 [Compound 38] | 140 to 142
OC[C@H]1S[C@@H](Nc2ccccc2Cc2ccccc2)[C@H](O)[C@@H](O)[C@@H]1O [Compound 35] | 144 to 151

More lines, now with the values ahead:

melting point [°C] | SMILES
187 to 195 | OC[C@H]1S[C@@H](Oc2ccc(Cl)cc2Cc2ccc(-c3ccccc3)cc2)[C@H](O)[C@@H](O)[C@@H]1O [Compound 67, 4′-chloro-2′-(4′-phenylbenzyl)phenyl 5-thio-β-D-glucopyranoside]
172 to 173.5 | CCc1ccc(Cc2ccc(O)cc2O[C@@H]2S[C@H](CO)[C@@H](O)[C@H](O)[C@H]2O)cc1 [Compound 21, 2′-(4′-ethylbenzyl)-5′-hydroxyphenyl 5-thio-β-D-glucopyranoside]
192 to 194 | OC[C@H]1S[C@@H](Oc2ccc(Cl)cc2Cc2ccc3ccccc3c2)[C@H](O)[C@@H](O)[C@@H]1O [Compound 71]
183 to 184 | CN(C)c1ccc(Cc2cc(Cl)ccc2O[C@@H]2S[C@H](CO)[C@@H](O)[C@H](O)[C@H]2O)cc1 [Compound 52, 4′-chloro-2′-(4′-N,N-dimethylaminobenzyl)phenyl 5-thio-β-D-glucopyranoside]
184 to 186 | Cc1ccc(Cc2ccccc2O[C@@H]2S[C@H](CO)[C@@H](O)[C@H](O)[C@H]2O)cc1 [Compound 3, 2′-(4′-methylbenzyl)phenyl 5-thio-β-D-glucopyranoside]
146 to 148.5 | CC(C)c1ccc(Cc2cc(Cl)ccc2O[C@@H]2S[C@H](CO)[C@@H](O)[C@H](O)[C@H]2O)cc1 [Compound 63, 4′-chloro-2′-(4′-isopropylbenzyl)phenyl 5-thio-β-D-glucopyranoside]
74 to 76 | COC(=O)c1ccc(Cc2cc(Cl)ccc2O[C@@H]2S[C@H](CO)[C@@H](O)[C@H](O)[C@H]2O)cc1 [Compound 40, 4′-chloro-2′-(4′-methoxycarbonylbenzyl)phenyl 5-thio-β-D-glucopyranoside]
163 to 165.5 | CCc1ccc(Cc2cc(F)ccc2O[C@@H]2S[C@H](CO)[C@@H](O)[C@H](O)[C@H]2O)cc1 [Compound 8, 2′-(4′-ethylbenzyl)-4′-fluorophenyl 5-thio-β-D-glucopyranoside]
156 to 157 | CCc1ccc(Cc2ccc(F)cc2O[C@@H]2S[C@H](CO)[C@@H](O)[C@H](O)[C@H]2O)cc1 [Compound 64, 2′-(4′-ethylbenzyl)-5′-fluorophenyl 5-thio-β-D-glucopyranoside]
151 to 153 | CS(=O)(=O)Nc1ccc(Cc2cc(Cl)ccc2O[C@@H]2S[C@H](CO)[C@@H](O)[C@H](O)[C@H]2O)cc1 [Compound 51, 4′-chloro-2′-(4′-methylsulfonylaminobenzyl)phenyl 5-thio-β-D-glucopyranoside]
182 to 183 | OC[C@H]1S[C@@H](Oc2ccc(Cl)cc2Cc2cccc(F)c2)[C@H](O)[C@@H](O)[C@@H]1O [Compound 61, 4′-chloro-2′-(3′-fluorobenzyl)phenyl 5-thio-β-D-glucopyranoside]
170 to 175 | OC[C@H]1S[C@@H](Oc2ccc(Cl)cc2Cc2cccc3ccccc23)[C@H](O)[C@@H](O)[C@@H]1O [Compound 68]
175.5 to 177 | OC[C@H]1S[C@@H](Oc2ccc(Cl)cc2Cc2ccc(F)cc2F)[C@H](O)[C@@H](O)[C@@H]1O [Compound 60, 4′-chloro-2′-(2′,4′-difluorobenzyl)phenyl 5-thio-β-D-glucopyranoside]
195.5 to 197 | COc1ccc(Cc2cc(Cl)ccc2O[C@@H]2S[C@H](CO)[C@@H](O)[C@H](O)[C@H]2O)c(OC)c1 [Compound 80, 4′-chloro-2′-(2′,4′-dimethoxybenzyl)phenyl 5-thio-β-D-glucopyranoside]
219 to 220.5 | CCc1ccc(Cc2cc(C(=O)O)ccc2O[C@@H]2S[C@H](CO)[C@@H](O)[C@H](O)[C@H]2O)cc1 [Compound 16, 4′-carboxy-2′-(4′-ethylbenzyl)phenyl 5-thio-β-D-glucopyranoside]
157 to 158.5 | OC[C@H]1S[C@@H](Oc2ccccc2Cc2ccc(F)cc2)[C@H](O)[C@@H](O)[C@@H]1O [Compound 9, 2′-(4′-fluorobenzyl)phenyl 5-thio-β-D-glucopyranoside]
206 to 211 | CCc1ccc(Cc2ccc(CO)cc2O[C@@H]2S[C@H](CO)[C@@H](O)[C@H](O)[C@H]2O)cc1 [Compound 39, 2′-(4′-ethylbenzyl)-5′-(hydroxymethyl)phenyl 5-thio-β-D-glucopyranoside]
